The values that follow come from patent publication US9090589B2, “Specific nNOS inhibitors for the therapy and prevention of human melanoma” (priority 2011, dated 2015).

“Also recorded” adds a separate entry of the source. Where two headings read alike, the source gives them in different places.

Experiment [1] has as its system Lu1205 cells. As to the kind of experiment: Total NOS activity, Ultrasensitive Colorimetric Assay. The format is cell-based, human.
Experimental: (§1) Measurements of intracellular Nitric Oxide levels and NOS activities: NO was measured as nitrite by interaction with Griess reagent (Enzo Life Sciences, Lausen, Switzerland). […] The NOS activity was analyzed by Ultrasensitive Colorimetric Assay according to manufacturer's protocol (Oxford Biomedical Research, Inc., Oxford, Mich.).
Experiment [2] relates to nNOS expression in melanoma cells. As to the kind of experiment: nNOS expression by immunoblotting in melanoma cells. The format is cell-based, human. The conditions noted are these: for induction of nNOS by DETA/NO or UVB radiation: as low as 1 μM. In general terms: A western blot detects proteins with antibodies after separation by electrophoresis.
Experimental: Cell Protein Extraction and Western Blot Analysis: Melanoma cells were collected and lysed as described previously. […] Measurement of signal intensity on membranes was done using an imaging densitometer with Multi-Analyst software (Bio-Rad). All data were expressed as fold change of the control based on the calculation of density values of the specific protein bands standardized by α-Tubulin/actin. UV radiation and cell treatment: Cells were grown to about 70% confluence and media was removed completely for UV radiation. For UVA radiation, 5 ml of PBS was added to one 10-cm dish of cells and ice cubes were placed next to dishes for absorbing the heat generated by UVA. […] The UV intensity was measured by a radiometer with proper probes. Fresh media was added back after radiation and cells were returned to 37° C. incubator for recovering.
The test system of experiment [3] is human melanoma cells. Briefly: MTT proliferation of melanoma cells under DETA/NO stress. The format is cell-based.
Text: (§2) Proliferation analysis: MTT Colorimetric Assay was utilized for cell proliferation analysis according to manufacturer's protocol (Vybrant®, Molecular Probes, Inc. Eugene, Oreg.).
Experiment [4] concerns metastatic melanoma cells. As to the kind of experiment: Matrigel invasion assay. It is filed as cell-based, human.
Experimental: Invasion Assay: The invasiveness of melanoma cells was assessed on the basis of invasion of cells through Matrigel-coated membrane (BD Biosciences). Briefly, melanoma cells were collected and reconstituted in serum-free medium. Prepared cells were added to the upper Matrigel-coated insert. After 20 hr incubation, cells were fixed and stained with hematoxylin. Membranes were visualized microscopically and the invading cells on each of triplicate membranes were counted and averaged for 20 random fields.
For experiment [5], the system named is metastatic melanoma A375 cells in skin equivalents. Briefly: 3-dimensional skin reconstructs, melanoma growth. The format is cell-based, human. Particulars: 2 weeks.
Experimental: 3-Dimensional Skin Reconstructs: A 3-dimensional skin reconstruct was achieved using a literature method. […] Once the epidermus is adhered to the dermal layer, skin equivalents are then lifted to the air liquid interface to allow keratinocytes differentiation. […] By the end of experiments, the skin equivalents were fixed and stained with H&E for pathological evaluation. S-100 staining as a melanocyte biomarker was performed to visualize and confirm the lesion of melanoma.
Experiment [6] concerns melanoma A375 cells. Briefly: L-arginine-induced intracellular NO, Griess reagent. It is filed as cell-based, human. For orientation: The Griess reaction detects nitrite, a stable product of nitric oxide.
Experimental: as §1
Experiment [7] deals with metastatic melanoma A375 cells. As to the kind of experiment: Adhesion of A375 cells to fibroblast monolayer. The format is cell-based, human. The conditions noted are these: 2 μM, 1 hour.
Experimental: Non-adhesive cells were washed away by PBS and MTT reagent was utilized to determine the relative amount of cells that adhered to FB cells, which is calculated as: relative adhesive cell OD value=(sample OD value (adhesive melanoma cells+FB)−negative control OD value (FB only)). The mean changes of OD values with treatments (control is set as 0) represented the relative effects of compounds on melanoma adhesion.
Experiment [8] has as its target nNOS (Rattus norvegicus (Rat), UniProt P29476). Briefly: biochemical. Particulars: recombinant isozyme.
For experiment [9], the target named is T1, iNOS (Mus musculus (Mouse), UniProt P29477). The conditions noted are these: read-out: Ki iNOS; recombinant isozyme.
Experiment [10] has as its target T2, iNOS (Homo sapiens (Human), UniProt P35228). It is filed as biochemical.
In experiment [11] the target is T2, iNOS. Particulars: cited from earlier work.
Experiment [12] concerns the target nNOS (Homo sapiens (Human), UniProt P29475). Particulars: cited from earlier work.
The test system of experiment [13] is human primary melanocytes. As to the kind of experiment: MTT proliferation of primary melanocytes. The format is cell-based. Particulars: 12-day period, DETA/NO exposure.
Text: as §2
The test system of experiment [14] is nNOS expression in normal melanocytes. Briefly: nNOS expression in normal melanocytes. It is filed as cell-based, human. Particulars: DETA/NO.
Text: Cell Protein Extraction and Western Blot Analysis: Melanoma cells were collected and lysed as described previously. […] Measurement of signal intensity on membranes was done using an imaging densitometer with Multi-Analyst software (Bio-Rad). All data were expressed as fold change of the control based on the calculation of density values of the specific protein bands standardized by α-Tubulin/actin.
For experiment [15], the system named is nNOS. Briefly: biochemical. The conditions noted are these: for Selectivity nNOS/eNOS: Ki(eNOS)/Ki(nNOS); for Selectivity nNOS/iNOS: Ki(iNOS)/Ki(nNOS).
Experiment [16] concerns wm3211. As to the kind of experiment: Cytotoxicity in melanoma cell line. It is filed as cell-based. Particulars: Homo sapiens.
Text: as §2
Experiment [17] deals with Sk-Mel28. Briefly: Cytotoxicity in melanoma cell line. The format is cell-based. The conditions noted are these: Homo sapiens, SK-MEL-28.
Text: as §2
In experiment [18] the target is T1, iNOS. Briefly: biochemical.
In experiment [19] the target is T3, eNOS (Bos taurus (Bovine), UniProt P29473). Briefly: biochemical.
The target in experiment [20] is T3, eNOS. The conditions noted are these: read-out: Ki eNOS; recombinant isozyme.

Consider `Cc1cc(N)nc(C[C@H]2CNC[C@@H]2NCCNCCc2cccc(F)c2)c1` [Compound 8, N^1-((3R,4S)-4-((6-amino-4-methylpyridin-2-yl)methyl)pyrrolidin-3-yl)-N^2-(3-fluorophenethyl)ethane-1,2-diamine], for which, in experiment [1] (1 μM), the “NOS activity in metastatic Lu1205 cells” value is reported as “significantly reduced total NOS activities; also recorded: effectively inhibited”. For the same compound, the “induction of nNOS by DETA/NO or UVB radiation” value in [2] (listed as Cpd 8) was “effectively inhibited the induction of nNOS”; in experiment [2] (listed as cpd 8) it was “inhibited nNOS expression”. In addition, the “basal nNOS levels of melanoma cells” value in [2] (up to 200 μM) was “does not affect basal nNOS levels”. In addition, the DETA/NO-stimulated proliferation entry in experiment [3] (co-treatment, after 3 days) is on record as “significantly reversed”. Moreover, in [4] (A375 cells, co-treatment with L-arginine 2.87 mM), the “invasion potential elevated by L-arginine” value is reported as “inhibited; also recorded: efficiently reversed”. Also, the “cell invasion potential elevated by DETA/NO” value in experiment [4] (co-treatment with DETA/NO) is “reversed”. For the same compound, the “melanoma overgrowth induced by L-arginine in skin reconstruct” value in experiment [5] (2 μM, L-arginine 2.87 mM) is reported as “reversed the overgrowth induced by L-arginine”. Moreover, in experiment [6] (as low as 1 μM, listed as cpd 8), the “L-arginine-induced NO generation” value was “inhibited; also recorded: efficiently inhibited NO production; also recorded: reduced”. In addition, the “L-arginine-stimulated adhesion of A375 cells to fibroblast cells” value in [7] was “most potent inhibition of the relative adhesion”.
One may read the Ki as a dissociation constant, usually derived from enzyme kinetics or from competition with a known ligand. For `Cc1cc(N)nc(C[C@H]2CNC[C@H]2NCCN)c1` [Compound 5, N^1-((3S,4S)-4-((6-amino-4-methylpyridin-2-yl)methyl)pyrrolidin-3-yl)ethane-1,2-diamine], the Ki in [8] amounted to 0.098 µM; in experiment [9], 5.84 µM.
Regarding `Oc1ccc(C=Cc2cc(O)cc(O)c2)cc1` [resveratrol], the “L-arginine-induced NO generation” value in experiment [6] (up to 50 μM) was “not affected at all; also recorded: failed to inhibit”.
Consider `N=C(N)SCCc1cccc(CCSC(=N)N)c1` [PBIT, 1,3-phenylene-bis(1,2-ethanediyl)bisisothiourea], for which the “iNOS selectivity over nNOS” value in [10] was 1.5 fold. Moreover, the results for the Ki in [11] and in [12] were 0.019 µM and 0.029 µM, respectively.
For `NCCN(CCN)[N+]([O-])=NO` [DETA/NO, 1-[N-(2-Aminoethyl)-N-(2-ammonioethyl)amino]diazen-1-ium-1,2-diolate, reference compound], in experiment [3] (100 μM), the “proliferation of metastatic Lu1205 and SK-Mel28 cells” value is listed as “Marked stimulation of proliferation”; the “proliferation of primary melanoma wm3211 cells” value is given as “not significant”. In experiment [13], the “cell proliferation of primary melanocytes” value is “significantly stimulated”. In addition, the “nNOS induction in melanocytes” value in experiment [14] was “not evident”.
By IC50 is commonly meant the point on the concentration scale where inhibition reaches its midpoint. A lower IC50 goes with higher potency. As to `Nc1cccc(C[C@H]2CN(Cc3ccccc3)C[C@H]2NCCCc2ccccc2)n1` [Compound 2, 6-(((3S,4S)-1-benzyl-4-((3-phenylpropyl)amino)pyrrolidin-3-yl)methyl)pyridin-2-amine], the Ki in experiment [8] was 48 µM; in experiment [18] it was 609 µM; in experiment [19], 122 µM. For the same compound, in experiment [15], the “Selectivity nNOS/eNOS” value amounted to 2.5. For the same compound, in experiment [15], the “Selectivity nNOS/iNOS” value was 12.7. In addition, the half-inhibitory concentration (IC50) in experiment [16] was found to be 5 µM; in experiment [17], 3.5 µM.
`Cc1cc(N)nc(C[C@H]2CNC[C@H]2NCCNCc2cccc(C(F)(F)F)c2)c1` [Compound 3, N^1-((3S,4S)-4-((6-amino-4-methylpyridin-2-yl)methyl)pyrrolidin-3-yl)-N^2-(3-(trifluoromethyl)benzyl)ethane-1,2-diamine]: the Ki in [8] turned out to be 0.21 µM; in experiment [9] it was 13.6 µM; in experiment [20], 116 µM. Besides, in [15], the “Selectivity nNOS/eNOS” value is on record as 552.4. In experiment [15], the “Selectivity nNOS/iNOS” value came to 64.8.
Regarding `N=C(N)NCCC[C@H](N)C(=O)O` [L-arginine, reference compound], the “invasion potential of metastatic melanoma cells” value in experiment [4] (2.87 mM) is recorded as “markedly enhanced the invasion potential”. Moreover, in experiment [5] (2.87 mM), the “melanoma growth in 3D skin equivalents” value is reported as “significantly promoted melanoma growth”. Further, in experiment [6] (incubation with L-arginine, A375 cells), the “intracellular NO level” value is reported as “increased”.
`Cl.Cl.Cl.NCCCCNCCCN` [Spermidine trihydrochloride (ST), Spermidine trihydrochloride, reference compound]: the “NOS activity in metastatic Lu1205 cells” value in experiment [1] (10 μM) is given as “comparable inhibition of NOS activity”.
Regarding `COc1cc(/C=C/C(=O)CC(=O)/C=C/c2ccc(O)c(OC)c2)ccc1O` [curcumin], the “L-arginine-induced NO generation” value in [6] (up to 50 μM) is “not affected at all; also recorded: failed to inhibit”.
